This is an account of results in patent US8163909B2, “Substituted hydroxyethyl amine compounds as beta-secretase modulators and methods of use” (Amgen Inc., priority 2007, dated 2012).

For assay [1], the target named is Beta Secretase enzyme (BACE) (Homo sapiens, UniProt P56817). In words: In vitro enzymatic BACE FRET (fluorescence resonance energy transfer) assay.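 Further: fluorescence read after 1 h with 50 nM quenched peptide substrate spanning the BACE cleavage site, in pH 4.2 acetate buffer containing 10% DMSO and nonionic detergent.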 The class given is biochemical.
Assay [2] deals with Aβ40 in conditioned medium of cells stably expressing Amyloid Precursor Protein (APP). Nature of the assay: In vitro BACE cell-based assay (Aβ40 in conditioned medium, sandwich ELISA).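 Further: compounds added as a dilution series, secreted peptide quantified by europium time-resolved fluorescence readout, potency fitted from percent of control versus compound concentration.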 As to conditions: Homo sapiens. (In general: An ELISA detects its analyte on a solid surface through an enzyme-linked reagent.)
[3] abbreviates: Table 1, read-out: BACE1 FRET assay.
The mark [4] stands for this setting: HEK293, Table 1, HEK cells, read-out: HEK cell assay.
The mark [5] stands for this setting: BACE enzyme assay, read-out: BACE1 FRET assay (IC50).
Setting [6] is: HEK293, HEK cells, cell-based assay, read-out: HEK cell assay (IC50).
Setting [7] is: BACE enzyme FRET assay, read-out: BACE1 FRET assay (IC50).

Read-outs that look alike come from different tables or passages of the source.

Chain of Beta Secretase enzyme (BACE) (P56817 46-501): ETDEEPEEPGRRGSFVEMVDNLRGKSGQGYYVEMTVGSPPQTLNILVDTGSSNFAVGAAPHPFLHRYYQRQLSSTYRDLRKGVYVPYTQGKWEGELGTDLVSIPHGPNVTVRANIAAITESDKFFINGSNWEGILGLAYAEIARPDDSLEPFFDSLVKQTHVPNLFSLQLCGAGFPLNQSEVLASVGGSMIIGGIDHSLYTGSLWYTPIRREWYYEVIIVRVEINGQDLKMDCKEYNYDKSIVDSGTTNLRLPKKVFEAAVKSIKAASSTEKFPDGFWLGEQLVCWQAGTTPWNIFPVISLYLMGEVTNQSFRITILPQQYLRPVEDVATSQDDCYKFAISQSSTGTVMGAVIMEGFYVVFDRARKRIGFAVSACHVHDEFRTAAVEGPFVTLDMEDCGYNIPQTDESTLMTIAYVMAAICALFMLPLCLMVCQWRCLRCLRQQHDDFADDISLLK

Consider `COCC(=O)N[C@@H](Cc1ccc2c(c1)OCO2)[C@H](O)CN[C@H]1CC2(CCC2)Oc2ncc(CC(C)(C)C(F)(F)F)cc21` [compound 362], for which the IC50 came out at 0.0601 µM in assay [1] (setting [3]) and 0.123 µM in assay [2] (setting [4]).

As to `COCC(=O)N[C@@H](Cc1ccccc1)[C@H](O)CN[C@H]1CC2(CCC2)Oc2ncc(CC(C)C)cc21` [compound 328], the values for the IC50 in assay [1] (setting [3]) and in assay [2] (setting [4]) were 0.00919 µM and 0.023 µM, respectively.

`CO[C@H](C)C(=O)N[C@@H](Cc1cccc(C#N)c1)[C@H](O)CN[C@H]1CC2(CCC2)Oc2ncc(CC(C)(C)F)cc21` [compound 58]: the figures for the IC50 in assay [1] (setting [5]) and in assay [2] (setting [6]) were 0.00575 µM and 0.00678 µM, respectively.

For the molecule `CO[C@@H](C)C(=O)N[C@@H](Cc1cccc(F)c1)[C@H](O)CN[C@H]1CC2(CCC2)Oc2ncc(CC(C)(C)C)cc21` [compound 361], the IC50 stood at 0.00658 µM in assay [1] (setting [3]) and 0.00923 µM in assay [2] (setting [4]).

Turning to `COCC(=O)NC(Cc1ccc2c(c1)OCO2)C(O)CNC1CC2(CC(C)C2)Oc2ncc(CC(C)(C)C)cc21` [compound 238, N-((1S,2R)-1-(1,3-benzodioxol-5-ylmethyl)-3-(((1s,3R,4′S)-6′-(2,2-dimethylpropyl)-3-methyl-3′,4′-dihydrospiro[cyclobutane-1,2′-pyrano[2,3-b]pyridin]-4′-yl)amino)-2-hydroxypropyl)-2-(methyloxy)acetamide], the IC50 came out at 0.0184 µM in assay [1] (setting [7]) and 0.0327 µM in assay [2] (setting [6]).

For `COCC(=O)N[C@@H](Cc1ccc(F)cc1)[C@H](O)CN[C@H]1CC2(CCC2)Oc2ncc(CC(C)(C)C(F)F)cc21` [compound 160], the results for the IC50 in assay [1] (setting [5]) and in assay [2] (setting [6]) were 0.00884 µM and 0.0391 µM, respectively.

`COCC(=O)N[C@@H](Cc1cc(F)cc(F)c1)[C@H](O)CN[C@H]1CC2(CCC2)Oc2ncc(CC(C)(C)C#N)cc21` [compound 92]: the IC50 in assay [1] (setting [5]) turned out to be 0.00325 µM; in assay [2] (setting [6]) it was 0.00621 µM.

Regarding `COCC(=O)NC(Cc1ccc2c(c1)OCO2)C(O)CNC1CC2(CC(O)C2)Oc2cnccc21` [compound 242, N-((1S,2R)-1-(1,3-benzodioxol-5-ylmethyl)-2-hydroxy-3-(((1s,3S,4′S)-3-hydroxy-3′,4′-dihydrospiro[cyclobutane-1,2′-pyrano[2,3-c]pyridin]-4′-yl)amino)propyl)-2-(methyloxy)acetamide], the figures for the IC50 in assay [1] (setting [7]) and in assay [2] (setting [6]) were 23.9 µM and 1.16 µM, respectively.

Consider `CO[C@H](C)C(=O)N[C@@H](Cc1ccc2c(c1)OC(F)(F)O2)[C@H](O)CN[C@H]1CC2(CCC2)Oc2ncc(CC(C)(C)C)cc21` [compound 295], for which the IC50 worked out at 0.0969 µM in assay [1] (setting [7]) and 1.33 µM in assay [2] (setting [6]).

As to `CC(=O)N[C@@H](Cc1ccc2c(c1)OCO2)[C@H](O)CN[C@H]1CC2(CCC2)Oc2ncc(C[C@H](C)C(F)(F)F)cc21` [compound 320], the IC50 in assay [1] (setting [3]) was 0.155 µM; in assay [2] (setting [4]), 0.12 µM.

As to `COCC(=O)N[C@@H](Cc1ccc2c(c1)OCO2)[C@H](O)CN[C@H]1CC2(CCC2)Oc2ncc(CC(C)C)cc21` [compound 334], the values for the IC50 in assay [1] (setting [3]) and in assay [2] (setting [4]) were 0.048 µM and 0.0672 µM, respectively.

For the molecule `CO[C@H](C)C(=O)N[C@@H](Cc1ccc(Cl)c(F)c1)[C@H](O)CN[C@H]1CC2(CCC2)Oc2ncc(CC(C)(C)F)cc21` [compound 70], the IC50 in assay [1] (setting [5]) was 0.0558 µM; in assay [2] (setting [6]) it was 0.138 µM.

Regarding `COCC(=O)N[C@@H](Cc1cccc(C(N)=O)c1)[C@H](O)CN[C@H]1CC2(CCC2)Oc2ncc(CC(C)(C)F)cc21` [compound 863], the IC50 in assay [1] (BACE enzyme assay, IC50's in uM, read-out: BACE1 FRET assay) came out at 0.013 µM; in assay [2] (HEK293, cell-based assay, HEK cells, IC50's in uM, read-out: HEK cell assay), 0.033 µM.

As to `COCC(=O)N[C@@H](Cc1cccc(F)c1)[C@H](O)CN[C@H]1CC2(CCC2)Oc2ncc(CC3(C(F)(F)F)CC3)cc21` [compound 327], the results for the IC50 in assay [1] (setting [3]) and in assay [2] (setting [4]) were 0.00985 µM and 0.0604 µM, respectively.

Take `COCC(=O)N[C@@H](Cc1ccc2c(c1)OCO2)[C@H](O)CN[C@H]1CC2(CCC2)Oc2ncc(CC(C)(F)F)cc21` [compound 276]: the figures for the IC50 in assay [1] (setting [7]) and in assay [2] (setting [6]) were 0.076 µM and 0.0872 µM, respectively.

Consider `CO[C@H](C)C(=O)N[C@@H](Cc1ccc2c(c1)OCO2)[C@H](O)CN[C@H]1CC2(CCC2)Oc2ncc(CC(C)(C)CF)cc21` [compound 190], for which the IC50 in assay [1] (setting [7]) worked out at 0.0238 µM; in assay [2] (setting [6]) it was 0.0432 µM.

For `COCC(=O)N[C@@H](Cc1ccnc(OCC(F)(F)F)c1)[C@H](O)CN[C@H]1CC2(CCC2)Oc2ncc(CC(C)(C)C)cc21` [compound 166], the IC50 was found to be 0.0108 µM in assay [1] (setting [5]) and 0.00985 µM in assay [2] (setting [6]).

Consider `CC(=O)N[C@@H](Cc1ccc(F)cc1)[C@H](O)CN[C@H]1CC2(CCC2)Oc2ncc(NC(=O)C(C)C)cc21` [compound 86], for which the IC50 in assay [1] (setting [5]) stood at 7.47 µM; in assay [2] (setting [6]), 9.73 µM.

Consider `CO[C@H](C)C(=O)N[C@@H](Cc1ccc(F)cc1)[C@H](O)CN[C@H]1CC2(CCC2)Oc2ncc([C@H](F)C(C)(C)C)cc21` [compound 186], for which the IC50 is 0.00776 µM in assay [1] (setting [7]) and 0.0265 µM in assay [2] (setting [6]).

As for `CO[C@@H](C)C(=O)N[C@@H](Cc1ccc2c(c1)OCO2)[C@H](O)CN[C@H]1CC2(CCC2)Oc2ncc([C@H](F)C(C)(C)C)cc21` [compound 331], the IC50 in assay [1] (setting [3]) amounted to 0.0515 µM; in assay [2] (setting [4]), 0.0446 µM.

Regarding `COCC(=O)N[C@@H](Cc1ccc(F)c(OC)c1)[C@H](O)CN[C@H]1CC2(CCC2)Oc2ncc(CC(C)(C)C)cc21` [compound 79], the IC50 is 0.00637 µM in assay [1] (setting [5]) and 0.0148 µM in assay [2] (setting [6]).

`CC(=O)N[C@@H](Cc1ccnc(OCC(F)F)c1)[C@H](O)CN[C@H]1CC2(CCC2)Oc2c(F)cc(CC(C)(C)C)cc21` [compound 223]: the IC50 in assay [1] (setting [7]) amounted to 0.00969 µM; in assay [2] (setting [6]), 0.0298 µM.

Take `CO[C@H](C)C(=O)N[C@@H](Cc1cccc(F)c1)[C@H](O)CN[C@H]1CC2(CCC2)Oc2ncc(CC(C)(C)C(F)F)cc21` [compound 219]: the IC50 in assay [1] (setting [7]) was 0.00508 µM; in assay [2] (setting [6]), 0.00599 µM.

With `COCC(=O)N[C@@H](Cc1ccccc1)[C@H](O)CNC1CC2(CC(F)(F)C2)Oc2ncc(CC(C)(C)C)cc21` (stereo partly shown) [compound 54], the figures for the IC50 in assay [1] (setting [5]) and in assay [2] (setting [6]) were 0.003 µM and 0.066 µM, respectively.

Take `CNc1nc(CC(C)(C)C)cc2c1OC1(CCC1)C[C@@H]2NC[C@@H](O)[C@H](Cc1ccc2c(c1)OCO2)NC(=O)COC` [compound 125]: the IC50 in assay [1] (setting [5]) turned out to be 0.057 µM; in assay [2] (setting [6]), 0.0133 µM.

Regarding `COCC(=O)NC(Cc1cccc(F)c1)C(O)CNC1CC2(CC(O)C2)Oc2cnccc21` [compound 235, N-((1S,2R)-1-((3-fluorophenyl)methyl)-2-hydroxy-3-(((1s,3S,4′S)-3-hydroxy-3′,4′-dihydrospiro[cyclobutane-1,2′-pyrano[2,3-c]pyridin]-4′-yl)amino)propyl)-2-(methyloxy)acetamide], the IC50 worked out at 0.581 µM in assay [1] (setting [7]) and 0.452 µM in assay [2] (setting [6]).

For the molecule `CC(=O)N[C@@H](Cc1ccc(F)cc1)[C@H](O)CN[C@H]1C[C@@]2(CC[C@@H]2O)Oc2ncc(CC(C)(C)C)cc21` [compound 114], the values for the IC50 in assay [1] (setting [5]) and in assay [2] (setting [6]) were 1.58 µM and 0.909 µM, respectively.

`COCC(=O)N[C@@H](CC1CC1)[C@H](O)CN[C@H]1CC2(CCC2)Oc2ncc(CC(C)(C)C)cc21` [compound 213]: the values for the IC50 in assay [1] (setting [7]) and in assay [2] (setting [6]) were 0.057 µM and 0.0787 µM, respectively.

With `CC(C)(C)Cc1cnc2c(c1)[C@@H](NC[C@@H](O)[C@H](Cc1cccc(F)c1)NC(=O)C1CN(C3CCC3)C(=O)C1(C)C)CC1(CCC1)O2` (stereo partly shown) [compound 66], the IC50 was 0.0436 µM in assay [1] (setting [5]) and 1.11 µM in assay [2] (setting [6]).

Take `COCC(=O)N[C@@H](Cc1ccc2c(c1)OCO2)[C@H](O)CN[C@H]1CC2(CCC2)Oc2nc(F)c(CC(C)C)cc21` [compound 337]: the IC50 in assay [1] (setting [3]) stood at 0.12 µM; in assay [2] (setting [4]), 0.531 µM.

As for `COCC(=O)N[C@@H](Cc1cccc(F)c1)[C@H](O)CN[C@H]1CC2(CCC2)Oc2c1cc(CC(C)(C)C)nc2OCC(F)(F)F` [compound 140, N-((1S,2R)-3-(((4′S)-6′-(2,2-dimethylpropyl)-8′-((2,2,2-trifluoroethyl)oxy)-3′,4′-dihydrospiro[cyclobutane-1,2′-pyrano[2,3-c]pyridin]-4′-yl)amino)-1-((3-fluorophenyl)methyl)-2-hydroxypropyl)-2-(methyloxy)acetamide], the IC50 is 0.00775 µM in assay [1] (setting [5]) and 0.115 µM in assay [2] (setting [6]).

Turning to `CO[C@H](C)C(=O)N[C@@H](Cc1cc(Cl)c2c(c1)OCO2)[C@H](O)CN[C@H]1CC2(CCC2)Oc2ncc(CC(C)(C)C)cc21` [compound 209], the IC50 in assay [1] (setting [7]) was found to be 0.0122 µM; in assay [2] (setting [6]) it was 0.0181 µM.

With `CC(=O)N[C@@H](Cc1ccc2c(c1)OCO2)[C@H](O)CN[C@H]1CC2(CCC2)Oc2ncc(C[C@@H](C)C(F)(F)F)cc21` [compound 321], the IC50 in assay [1] (setting [3]) stood at 0.134 µM; in assay [2] (setting [4]), 0.0646 µM.

Regarding `CO[C@H](C)C(=O)N[C@@H](Cc1cccc(F)c1)[C@H](O)CN[C@H]1CC2(CCC2)Oc2ncc(CC(C)(C)F)cc21` [compound 301], the values for the IC50 in assay [1] (setting [7]) and in assay [2] (setting [6]) were 0.00781 µM and 0.00699 µM, respectively.

With `CC(=O)N[C@@H](Cc1ccc(F)cc1)[C@H](O)CN[C@@H]1c2cc(CC(C)(C)C)cnc2OC2(CCC2)[C@H]1F` [compound 357], the IC50 in assay [1] (setting [3]) is 13.3 µM; in assay [2] (setting [4]), above 10 µM.

`COCC(=O)N[C@@H](Cc1cccc(F)c1)[C@H](O)CN[C@H]1CC2(CCC2)Oc2ncc(CC(C)(C)F)cc21` [compound 284]: the figures for the IC50 in assay [1] (setting [7]) and in assay [2] (setting [6]) were 0.00265 µM and 0.00477 µM, respectively.

For the molecule `CC(O)C(=O)N[C@@H](Cc1ccc(F)cc1)[C@H](O)CN[C@H]1CC2(CCC2)Oc2ncc(CC(C)(C)C)cc21` (stereo partly shown) [compound 156], the IC50 in assay [1] (setting [5]) came out at 0.0277 µM; in assay [2] (setting [6]), 0.0453 µM.

As for `COc1cc(C[C@H](NC(C)=O)[C@H](O)CN[C@H]2CC3(CCC3)Oc3ncc(CC(C)(C)C(F)F)cc32)ccc1Cl` [compound 216], the IC50 amounted to 0.016 µM in assay [1] (setting [7]) and 0.0249 µM in assay [2] (setting [6]).
